Assay results as given in US20250205229A1, “DRUG FOR TREATING OR PREVENTING CHARCOT-MARIE-TOOTH DISEASE” (Kyoto University, priority 2022, published 2025).
Structures can show the parent of a compound that is named as a salt.

Assays:
MFN1 gene = assay: Screening for MFN1 mRNA expression by qPCR in motor neurons derived from iPS cells of CMT patients with MFN2 mutations; type: cell-based, human; settings: relative to vehicle (DMSO) defined as 1, motor neurons having the mutated MFN2 gene, compound added on day 10, RNA extracted on day 12
Description: (§1) iPS cells established according to the method described in NPL 3 were used. The iPS cells were derived from peripheral-blood mononuclear cells (PBMCs) from CMT2 patients with MFN2 gene mutations (CMT1 (R94Q) and CMT2 (H128Y)) and healthy subjects without MFN2 mutations (Healthy). A feeder-free medium was used to perform maintenance culture of the iPS cells.
(§2) mRNA was extracted, and mRNA expression levels of MFN1 and MFN2 were quantified by qPCR.
(§3) The overview of the screening method is shown in the upper left of FIG. 2. Constructs expressing Lhx3, Ngn2, and Isl1 under tetracycline induction were introduced into the iPS cells using PiggyBac vectors, whereby stable lines were generated. Doxycycline was added to the iPS cells, and the iPS cells were cultured for 7 days using a neuro-differentiation medium to generate motor neurons (Imamura et al. Sci Transl Med 2017). […]
(§4) Screening was performed to search for existing drugs that increase the expression levels of the MIFN1 gene or MFN2 gene using the motor neurons having the mutated MFN2 gene. […] The expression levels of the MFN1 gene and the MFN2 gene are expressed as relative values with the mRNA expression levels thereof when a vehicle (DMSO) was administered being defined as 1.

MFN2 gene = assay: Screening for MFN2 mRNA expression by qPCR in motor neurons derived from iPS cells of CMT patients with MFN2 mutations; type: cell-based, human; settings: relative to vehicle (DMSO) defined as 1, motor neurons having the mutated MFN2 gene, compound added on day 10, RNA extracted on day 12
Description: as §1, §2, §3, §4

Structure (SMILES) | Relative expression level of the MFN1 gene (MFN1 gene) | Relative expression level of the MFN2 gene (MFN2 gene)
CC(C)N=c1cc2n(-c3ccc(Cl)cc3)c3ccccc3nc-2cc1Nc1ccc(Cl)cc1 [Clofazimine, N,5-bis(4-chlorophenyl)-3-propan-2-yliminophenazin-2-amine] | 1.889 | 1.197
CC[C@@H](CO)NC(=O)[C@@H]1C=C2c3cccc4[nH]cc(c34)C[C@H]2N(C)C1 [Methylergometrine Maleate, (6aR,9R)—N—((S)-1-hydroxybutan-2-yl)-7-methyl-4,6,6a,7,8,9-hexahydroindolo[4,3-fg]quinoline-9-carboxamide maleate] | 2.007 | 3.676
